# Earlier results, collected in article PMC12030314, “Biomarker-Driven Pharmacokinetics and Efficacy of Polymyxin B in Critically Ill Patients with XDR-GN Pneumonia” (Pharmaceuticals, 2025).
# Where two headings read alike, the source gives them in different places.
# Legend:
# [1] = significant individual variation; cited from earlier work
# Text: Colistin (colistin methanesulfonate, CMS) and polymyxin B (PMB) are polymyxins that were approved for clinical use in the 1950s worldwide. Colistin is clinically administered as a prodrug, which requires conversion to the active form in vivo. […] The elimination of colistin is primarily dependent on renal function. Patients with renal impairment are prone to drug accumulation and increased nephrotoxicity risk. PMB is ... || Finally, we cannot rule out the possibility of the potential impacts of other combined drugs on PMB PK and the heterogeneity among the patients in our study. To date, little evidence supports the conclusion that the combined use of other drugs affects PMB PK. Studies have shown that urinary recovery from PMB is low (<5%). […] Further studies examining the nonrenal routes of PMB elimination are warranted, ...
# [2] = ref Lamer et al. 103, cited from earlier work
Molecule,conversion efficiency of the prodrug to the active form in vivo [1],ELF/plasma value ([2]; patients with lung inflammation (ELF albumin ≥ 3.4 mg/mL)),ELF/plasma value ([2]; patients without lung inflammation (ELF albumin <3.4 mg/mL))
colistin methanesulfonate,20–25%,–,–
CN[C@H](CC(C)C)C(=O)N[C@H]1C(=O)N[C@@H](CC(N)=O)C(=O)N[C@H]2C(=O)N[C@H]3C(=O)N[C@H](C(=O)N[C@H](C(=O)O)c4cc(O)cc(O)c4-c4cc3ccc4O)[C@H](O)c3ccc(c(Cl)c3)Oc3cc2cc(c3O[C@@H]2O[C@H](CO)[C@@H](O)[C@H](O)[C@H]2O[C@H]2C[C@](C)(N)[C@H](O)[C@H](C)O2)Oc2ccc(cc2Cl)[C@H]1O [vancomycin],–,0.246 [0.192–0.426],0.14 [0.023–0.285]
